Among the data in US11780826B2 (Amgen Inc., priority 2017, dated 2023) are AC1.4 values, retold here.

The subject of this experiment is Bovine cardiac myofibrils. The experiment in a line: In vitro model of dose-dependent myofibril ATPase modulation (AC1.4, pyruvate kinase/lactate dehydrogenase-coupled ATPase assay at pCa25). It counts as biochemical. As to conditions: concentration at which ATPase activity was 1.4-fold higher than the bottom of the dose curve, mean of a minimum of two independent tests. The method in brief:
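Coupled-enzyme ATPase on bovine heart myofibrils, 1 mM ATP, EGTA/CaCl2 buffered; 340 nm readout.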
`N#CC1CN(S(=O)(=O)N2CCC[C@H](C(=O)N3CCC[C@@H]3C(=O)NCc3c(F)cc(F)c(F)c3F)C2)C1` [Example 423, 1-(((3S)-1-((3-cyano-1-azetidinyl)sulfonyl)-3-piperidinyl)carbonyl)-N-(2,3,4,6-tetrafluorobenzyl)-D-prolinamide] returned an AC1.4 of 1.5735 µM. For `O=C(N[C@@H](c1cc(F)c(C(F)(F)F)cc1F)C1COC1)[C@H]1C[C@H]2C[C@H]2N1C(=O)c1cc(C(F)(F)F)no1` [Example 826, (1R,3R,5R)-N-((R)-(2,5-difluoro-4-(trifluoromethyl)phenyl)(oxetan-3-yl)methyl)-2-(3-(trifluoromethyl)isoxazole-5-carbonyl)-2-azabicyclo[3.1.0]hexane-3-carboxamide], the AC1.4 was determined as 2.628 µM. As for `CS(=O)(=O)c1cccc(C(=O)N2CC[C@@H](F)[C@@H]2C(=O)N[C@@H](c2ccc(C(F)(F)F)cc2F)C2CC2)c1` [Example 589, (3R)-N-((R)-cyclopropyl(2-fluoro-4-(trifluoromethyl)phenyl)methyl)-3-fluoro-1-(3-(methylsulfonyl)benzoyl)-D-prolinamide], the AC1.4 was found to be 2.881 µM.

`CC(C)Nc1ccc(S(C)(=O)=O)cc1C(=O)N1CCC[C@@H]1C(=O)N[C@@H](c1ccc(C(F)(F)F)cc1F)C1CC1` [Example 81, N-((R)-cyclopropyl(2-fluoro-4-(trifluoromethyl)phenyl)methyl)-1-(5-(methylsulfonyl)-2-(2-propanylamino)benzoyl)-D-prolinamide] came in with an AC1.4 of 0.1048 µM. In turn, `CC[C@@H](NC(=O)[C@H]1CCCN1C(=O)c1cccc(S(=O)(=O)N2CC(C#N)C2)c1)c1cc(F)cc(F)c1` [Example 124, 1-(3-((3-cyano-1-azetidinyl)sulfonyl)benzoyl)-N-((1R)-1-(3,5-difluorophenyl)propyl)-D-prolinamide] came in with an AC1.4 of 0.1998 µM.

Take `N#CC1CN(S(=O)(=O)c2cccc(C(=O)N3c4ccccc4CC3C(=O)NCc3ccc(C(F)(F)F)cc3)c2)C1` (racemic) [Example 481, (2R)-1-((3-((3-cyano-1-azetidinyl)sulfonyl)phenyl)carbonyl)-N-(4-(trifluoromethyl)benzyl)-2,3-dihydro-1H-indole-2-carboxamide and (2S)-1-((3-((3-cyano-1-azetidinyl)sulfonyl)phenyl)carbonyl)-N-(4-(trifluoromethyl)benzyl)-2,3-dihydro-1H-indole-2-carboxamide]: the AC1.4 is 2.157 µM.

Consider `Cc1cc(Cl)cc(CNC(=O)[C@H]2CCCN2C(=O)[C@H]2CCCN(S(=O)(=O)N3CC(C#N)C3)C2)c1` [Example 443, N-(3-chloro-5-methylbenzyl)-1-(((3S)-1-((3-cyano-1-azetidinyl)sulfonyl)-3-piperidinyl)carbonyl)-D-prolinamide], for which the AC1.4 came out at 1.7885 µM. In turn, `CS(=O)(=O)c1ccc(C(=O)N2CCC[C@@H]2C(=O)NC(c2ccc(C(F)(F)F)cc2F)C2CC2)s1` (stereo partly drawn) [Example 567, (2R)-N-(cyclopropyl(2-fluoro-4-(trifluoromethyl)phenyl)methyl)-1-(5-(methylsulfonyl)thiophene-2-carbonyl)pyrrolidine-2-carboxamide] had an AC1.4 of 3.1075 µM. In the case of `C[C@H](NC(=O)[C@H]1CCCN1C(=O)[C@H]1CCCN(S(=O)(=O)N2CC(C#N)C2)C1)c1ccc(C(F)(F)F)cc1` [Example 431, 1-(((3S)-1-((3-cyano-1-azetidinyl)sulfonyl)-3-piperidinyl)carbonyl)-N-((1S)-1-(4-(trifluoromethyl)phenyl)ethyl)-D-prolinamide], the AC1.4 came out at 1.6305 µM. In the case of `CCS(=O)(=O)c1cccc(C(=O)N2CCC[C@@H]2C(=O)NCc2ccc(C(F)(F)F)cc2)c1` [Example 793, 1-(3-(ethylsulfonyl)benzoyl)-N-(4-(trifluoromethyl)benzyl)-D-prolinamide], the AC1.4 turned out to be 9.129 µM. Next, `NS(=O)(=O)c1cccc(C(=O)N2CCCC[C@@H]2C(=O)N[C@@H](c2cc(F)c(Cl)cc2F)C2CC2)c1` [Example 194, (2R)-N-((R)-(4-chloro-2,5-difluorophenyl)(cyclopropyl)methyl)-1-(3-sulfamoylbenzoyl)-2-piperidinecarboxamide]: 0.385 µM; `CS(=O)(=O)C1CN(S(=O)(=O)N2CCC[C@H](C(=O)N3CCC[C@@H]3C(=O)NCc3ccc(C(F)(F)F)cn3)C2)C1` [Example 499, 1-(((3S)-1-((3-(methylsulfonyl)-1-azetidinyl)sulfonyl)-3-piperidinyl)carbonyl)-N-((5-(trifluoromethyl)-2-pyridinyl)methyl)-D-prolinamide]: 2.344 µM; `CC[C@@H](NC(=O)[C@H]1CCCN1C(=O)[C@H]1CCCN(S(=O)(=O)N2CC(C#N)C2)C1)c1ccc(C(F)(F)F)cc1F` [Example 4, 1-(((3S)-1-((3-cyano-1-azetidinyl)sulfonyl)-3-piperidinyl)carbonyl)-N-((1R)-1-(2-fluoro-4-(trifluoromethyl)phenyl)propyl)-D-prolinamide]: 0.01635 µM. As for `CN(C)S(=O)(=O)c1cccc(C(=O)N2CCC[C@@H]2C(=O)NCc2ccc(Cl)c(F)c2)c1` [Example 303, N-(4-chloro-3-fluorobenzyl)-1-(3-(dimethylsulfamoyl)benzoyl)-D-prolinamide], the AC1.4 turned out to be 0.7956 µM. Molecule `O=C(N[C@@H](c1cc(F)c(Cl)cc1F)C1CC1)[C@H]1C[C@H]2C[C@H]2N1C(=O)c1cc(C(F)(F)F)ccn1` [Example 266, (1R,3R,5R)-N-((R)-(4-chloro-2,5-difluorophenyl)(cyclopropyl)methyl)-2-((4-(trifluoromethyl)-2-pyridinyl)carbonyl)-2-azabicyclo[3.1.0]hexane-3-carboxamide] came in with an AC1.4 of 0.6674 µM. Consider `C[C@H](O)[C@@H](NC(=O)[C@H]1C[C@H]2C[C@H]2N1C(=O)c1cccc(S(C)(=O)=O)c1)c1cc(F)c(Cl)cc1F` [Example 405, (1R,3R,5R)-N-((1S,2S)-1-(4-chloro-2,5-difluorophenyl)-2-hydroxypropyl)-2-(3-(methylsulfonyl)benzoyl)-2-azabicyclo[3.1.0]hexane-3-carboxamide], for which the AC1.4 turned out to be 1.4065 µM. For the molecule `N#CC1CN(S(=O)(=O)N2CCC(F)(F)[C@H](C(=O)N3CCC[C@@H]3C(=O)NCc3ccc(C(F)(F)F)cc3)C2)C1` [Example 143, 1-(((3S)-1-((3-cyano-1-azetidinyl)sulfonyl)-4,4-difluoro-3-piperidinyl)carbonyl)-N-(4-(trifluoromethyl)benzyl)-D-prolinamide], the AC1.4 was determined as 0.244 µM. Turning to `O=C(NCc1ccc(C(F)(F)F)cc1)[C@H]1CCCN1C(=O)[C@H]1CCCN(S(=O)(=O)N2CC(c3ccccn3)C2)C1` [Example 707, 1-(((3S)-1-((3-(2-pyridinyl)-1-azetidinyl)sulfonyl)-3-piperidinyl)carbonyl)-N-(4-(trifluoromethyl)benzyl)-D-prolinamide], the AC1.4 came out at 5.821 µM. The molecule `CS(=O)(=O)c1cccc(C(=O)N2[C@@H](C(=O)N[C@@H](c3ccc(F)cc3F)C3COC3)C[C@H]3C[C@H]32)c1` [Example 728, (1R,3R,5R)-N-((R)-(2,4-difluorophenyl)(3-oxetanyl)methyl)-2-(3-(methylsulfonyl)benzoyl)-2-azabicyclo[3.1.0]hexane-3-carboxamide] displayed an AC1.4 of 6.701 µM. As for `O=C(NCc1ccc(C(F)(F)F)cc1)[C@H]1CCCN1C(=O)c1cccc(S(=O)(=O)N2CC3(COC3)C2)c1` [Example 329, 1-((3-(2-oxa-6-azaspiro[3.3]hept-6-ylsulfonyl)phenyl)carbonyl)-N-(4-(trifluoromethyl)benzyl)-D-prolinamide], the figure is 0.8921 µM.

As to `N#C[C@@H]1CCN(S(=O)(=O)N2CCC[C@H](C(=O)N3CCC[C@@H]3C(=O)NCc3ccc(C(F)(F)F)cc3)C2)C1` [Example 319, 1-(((3S)-1-(((3R)-3-cyano-1-pyrrolidinyl)sulfonyl)-3-piperidinyl)carbonyl)-N-(4-(trifluoromethyl)benzyl)-D-prolinamide], the AC1.4 came to 0.8692 µM. `N#CC1CN(S(=O)(=O)N2CCC[C@H](C(=O)N3CCC[C@@H]3C(=O)NCc3c(F)cccc3Cl)C2)C1` [Example 719, N-(2-chloro-6-fluorobenzyl)-1-(((3S)-1-((3-cyano-1-azetidinyl)sulfonyl)-3-piperidinyl)carbonyl)-D-prolinamide] gave an AC1.4 of 6.2628 µM. For `O=C(N[C@@H](c1cc(F)c(Cl)cc1F)C1CC1)[C@H]1C[C@H]2C[C@H]2N1C(=O)c1ccnc(C(F)(F)F)c1` [Example 231, (1R,3R,5R)-N-((R)-(4-chloro-2,5-difluorophenyl)(cyclopropyl)methyl)-2-((2-(trifluoromethyl)-4-pyridinyl)carbonyl)-2-azabicyclo[3.1.0]hexane-3-carboxamide], the AC1.4 amounted to 0.5188 µM. The molecule `CS(=O)(=O)N1CC(F)(c2cccc(C(=O)N3[C@@H](C(=O)N[C@@H](c4ccc(C(F)(F)F)cc4F)C4CC4)C[C@H]4C[C@H]43)c2)C1` [Example 422, (1R,3R,5R)-N-((R)-cyclopropyl(2-fluoro-4-(trifluoromethyl)phenyl)methyl)-2-(3-(3-fluoro-1-(methylsulfonyl)-3-azetidinyl)benzoyl)-2-azabicyclo[3.1.0]hexane-3-carboxamide] had an AC1.4 of 1.5655 µM.

With `Cc1ccc(CNC(=O)[C@H]2CCCN2C(=O)[C@@H]2CN(S(=O)(=O)N3CC(C#N)C3)CCN2)cc1F` [Example 334, 1-(((2S)-4-((3-cyano-1-azetidinyl)sulfonyl)-2-piperazinyl)carbonyl)-N-(3-fluoro-4-methylbenzyl)-D-prolinamide], the AC1.4 was 0.9294 µM. Next, `O=C(NCc1ccc(C(F)(F)F)cc1)[C@H]1CCCN1C(=O)[C@H]1CCCN(S(=O)(=O)N2CC(n3ccnn3)C2)C1` [Example 203, 1-(((3S)-1-((3-(1H-l,2,3-triazol-1-yl)-1-azetidinyl)sulfonyl)-3-piperidinyl)carbonyl)-N-(4-(trifluoromethyl)benzyl)-D-prolinamide]: 0.4299 µM.
